Here are results for 39 compounds from ChEMBL document CHEMBL1201862, “PubChem BioAssay data set” (2004).

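All cell lines were grown in 96-well plates and treated with compound for 48 hours. GI50 is the concentration that inhibits growth by half.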 Calls of active or inactive are those of the source. Cut-off read from the data, not from the text of the source: active = GI50 up to about 1.1 µM and inactive = higher. Bounds are passed on as bounds.

Among the test systems are BT-549; MDA-N; T47D.
Assay in all cases: DTP human tumour cell line panel, 48 h

In general, GI50 refers to the concentration giving 50% growth inhibition.

Take `Cc1cn(C2CC(O)C(COC(=O)NCCC(F)(F)C(F)(F)C(F)(F)C(F)(F)F)O2)c(=O)[nH]c1=O` (stereo not given): the GI50 in the test on BT-549 is > 100 µM (inactive); with MDA-N, 86.3 µM (inactive); with T47D, > 100 µM (inactive).

For `CCOC(=O)n1c2ccccc2c2c(O)c(OC)c3c(c21)C(=O)NC3=O`, the GI50 is > 100 µM (inactive) in the test on BT-549, > 100 µM (inactive) with MDA-N and 95.1 µM (inactive) in the test with T47D.

`COc1cc([N+](=O)[O-])ccc1NC(=O)C(F)(F)F`: the GI50 with BT-549 is > 100 µM (inactive); with MDA-N, > 100 µM (inactive); in the test with T47D, 97.7 µM (inactive).

With `COc1cc(C(=O)C2C(=O)c3ccccc3C2C2(O)c3ccccc3CC2C(O)c2cc(OC)c(OC)c(OC)c2)cc(OC)c1OC` (stereo not given), the GI50 in the test on BT-549, with MDA-N and with T47D was > 100 µM (inactive) throughout.

Take `Nc1ccc(-c2ncc3cc(-c4cccc(-c5cc6cnc(-c7ccc(N)cc7)nc6c6ccccc56)c4)c4ccccc4c3n2)cc1`: the GI50 in the test with BT-549, in the test on MDA-N and with T47D was > 100 µM (inactive) throughout.

Regarding `Cc1cccc(CC(Cc2c(C)cccc2C(=O)O)C(=O)O)c1` (stereo not given), the GI50 with BT-549 and in the test with MDA-N was > 100 µM (inactive) in each case.

As for `N/C(=N\N=C\c1cc2ccccc2s1)c1cnccn1`, the values for the GI50 with BT-549, in the test with MDA-N and with T47D were > 100 µM (inactive), > 100 µM (inactive) and 8.93 µM (inactive), respectively.

Turning to `COc1ccc(C(=O)N2CCc3c([nH]c4ccccc34)C2C(=O)O)o1` (stereo not given), the GI50 with BT-549, with MDA-N and in the test on T47D was > 10 µM (inactive) each time.

As for `N#Cc1cnn2ccn(C3OC(COC(=O)c4ccccc4)C(OC(=O)c4ccccc4)C3OC(=O)c3ccccc3)c12` (stereo not given), the results for the GI50 in the test with BT-549, with MDA-N and in the test with T47D were > 100 µM (inactive), > 21.5 µM (inactive) and 19.1 µM (inactive), respectively.

For `CSC(=S)N/N=C(\C)c1cccc(C)n1`, the GI50 in the test on BT-549 was 5.19 µM (inactive); in the test on MDA-N, 0.925 µM (active); in the test on T47D it was 2.46 µM (inactive).

As to `CC(C)(C)c1cc(S(=O)(=O)O)c2oc(-c3ccccc3)cc(=O)c2c1`, the results for the GI50 in the test with BT-549, in the test with MDA-N and in the test on T47D were > 100 µM (inactive), > 100 µM (inactive) and 84.9 µM (inactive), respectively.

With `NS(=O)(=O)c1ccc(NC2(C(=O)O)CCCC2)cc1`, the GI50 in the test on BT-549, in the test with MDA-N and in the test on T47D was > 100 µM (inactive) throughout.

For the compound `Cn1cnc(N2CCCC2)c(C#N)c1=S`, the GI50 in the test with MDA-N and in the test with T47D was > 100 µM (inactive) each time.

Consider `C=CCC1C2CCC(O[Si](C(C)C)(C(C)C)C(C)C)(C(C(=O)OC)C2)C1O` (stereo not given), for which the GI50 with MDA-N is > 100 µM (inactive); with T47D, 38.8 µM (inactive).

For the compound `CCN1CCC(O)(c2ccc([N+](=O)[O-])cc2)C(C(=O)c2ccc([N+](=O)[O-])cc2)C1` (stereo not given), the values for the GI50 in the test with BT-549, in the test with MDA-N and in the test with T47D were 16.9 µM (inactive), 20.8 µM (inactive) and 23.3 µM (inactive), respectively.

On to `C=C(C)CCC1CC=[N+]([O-])OC1C(C)(C)C` (stereo not given), for which the figures for the GI50 in the test with MDA-N and in the test with T47D were 42.3 µM (inactive) and 20.7 µM (inactive), respectively.

`O=C1c2ccccc2-c2ccc(O)cc21`: in the test with T47D, the GI50 is 18.4 µM (inactive).

Take `Cc1cccc(C)c1NC(=O)/C(Cc1nc2ccc([N+](=O)[O-])cc2nc1O)=N\NC(N)=O`: the values for the GI50 in the test with BT-549 and in the test on T47D were 7.19 µM (inactive) and > 100 µM (inactive), respectively.

As for `Brc1ccc2c(-c3csc(-c4c[nH]c5cc(Br)ccc45)n3)c[nH]c2c1`, the GI50 was > 64.1 µM (inactive) in the test on BT-549, 5.43 µM (inactive) in the test on MDA-N and 20.2 µM (inactive) in the test with T47D.

Take `O=C1CCCN1C(=O)CS(=O)(=O)c1ccccc1`: the GI50 in the test with BT-549, with MDA-N and with T47D was > 100 µM (inactive) in each case.

Regarding `Nc1ncnc2c1nnn2C1C=CC(CP(=O)(O)O)C1` (stereo not given), the GI50 in the test with MDA-N and with T47D was > 100 µM (inactive) in each case.

Turning to `COC(=O)CP1(=O)OC2C(C3CCC2(C)C3(C)C)N1c1cc(C(F)(F)F)cc(C(F)(F)F)c1` (stereo not given), the values for the GI50 with BT-549 and in the test with T47D were 27.2 µM (inactive) and 19.1 µM (inactive), respectively.

On to `CN(Cc1cnc2c(N)nc(N)nc2n1)c1ccc(Cl)cc1`, for which the GI50 in the test on BT-549 was > 100 µM (inactive); in the test on MDA-N, > 100 µM (inactive); with T47D, 52.5 µM (inactive).

Regarding `O=C(/C=C/NC(=O)OCc1ccccc1)OCc1ccccc1`, the GI50 in the test on BT-549, with MDA-N and in the test on T47D was > 100 µM (inactive) in each case.

For the compound `CC(=O)O[C@H]1CN(S(=O)(=O)c2ccc(C)cc2)C[C@@H]1C1CCCCC1`, the results for the GI50 with MDA-N and in the test with T47D were 25.5 µM (inactive) and 40.6 µM (inactive), respectively.

Take `Nc1cccc(C#Cc2cccc(C#Cc3cccc(N)n3)n2)n1`: the figures for the GI50 in the test on BT-549, in the test on MDA-N and with T47D were > 100 µM (inactive), 79.3 µM (inactive) and 76.9 µM (inactive), respectively.

For `O=C(CCC1OCCO1)Nc1cc(NCc2ccccc2)ccc1OCc1ccccc1`, the GI50 in the test with BT-549 was 38.5 µM (inactive); with T47D it was 69.5 µM (inactive).

`COc1cc(/C=C2\C[C@H]3[C@@H]4CC=C5C[C@@H](O)CC[C@]5(C)[C@H]4CC[C@]3(C)[C@H]2O)cc(OC)c1OC`: the figures for the GI50 in the test on BT-549, with MDA-N and in the test on T47D were 15.4 µM (inactive), 21.9 µM (inactive) and 3.48 µM (inactive), respectively.

Consider `Cc1noc(/N=C2\C=C(O)C(=O)c3ccccc32)c1C`, for which the GI50 in the test with BT-549 was 1.05 µM (active); with MDA-N, 0.173 µM (active); in the test on T47D, 33.3 µM (inactive).

With `Nc1ccc(S(=O)(=O)c2ccc(NC(=O)c3cccnc3)cc2)cc1`, the GI50 in the test on BT-549 was 92 µM (inactive); in the test on MDA-N it was > 100 µM (inactive); with T47D, 36.8 µM (inactive).

Regarding `COc1ccc(CCCNC(=O)Cc2ccccc2CO)cc1OC`, the GI50 in the test with BT-549, in the test on MDA-N and in the test with T47D was > 100 µM (inactive) each time.

Consider `CCCCSCc1nc2nc(Cl)c(Cl)nc2[nH]1`, for which the GI50 in the test on BT-549 was 27.1 µM (inactive); with MDA-N, 25.1 µM (inactive); in the test with T47D it was 15.7 µM (inactive).

On to `CC1(C)N=c2c(ncn2Cc2ccccc2)=C(C(N)=O)N1`, for which the GI50 in the test on MDA-N and in the test on T47D was > 100 µM (inactive) each time.

With `COc1cc(C2c3cc4c(cc3OC(NCc3ccccc3)C2C)OCO4)cc(OC)c1OC` (stereo not given), the figures for the GI50 in the test on BT-549 and in the test on MDA-N were 0.631 µM (active) and 0.0973 µM (active), respectively.

For `NCCCn1c2ccccc2c2c3c(c4c(c21)CCC(O)CC4)C(=O)NC3=O` (stereo not given), the GI50 in the test with BT-549 is 4.81 µM (inactive).

Regarding `COc1cc(C=O)ccc1Oc1nnnn1-c1ccccc1`, the GI50 with BT-549 is 66.2 µM (inactive); in the test on MDA-N, 37.8 µM (inactive); in the test with T47D, 16.5 µM (inactive).

On to `COc1c(Cl)nc2ccccc2c1N=[N+]=[N-]`, for which the GI50 is 19.8 µM (inactive) in the test on BT-549, > 100 µM (inactive) in the test on MDA-N and 85.7 µM (inactive) in the test on T47D.

In the case of `COc1ccc(-c2c(C#N)c(-c3ccc(C)cc3)n(NS(=O)(=O)c3ccc(C)cc3)c(=O)c2C#N)cc1`, the GI50 with BT-549 was 33.9 µM (inactive); with MDA-N, 75 µM (inactive).

For `COc1cc2nc(-c3cccs3)[nH]c(=O)c2cc1OC`, the GI50 in the test on BT-549 and in the test with T47D was > 100 µM (inactive) each time.
